Measured values: ChEMBL document CHEMBL3352542, “Synthesis, biological evaluation and molecular modeling study of 2-(1,3,4-thiadiazolyl-thio and 4-methyl-thiazolyl-thio)-quinazolin-4-ones as a new class of DHFR inhibitors” (Bioorg Med Chem Lett, 2014)

Experiments:
Bacillus subtilis = experiment: Antimicrobial activity against Bacillus subtilis assessed as inhibition zone at 200 ug/disk after 24 hrs by disc-diffusion method; assay type: functional; settings: read-out: IZ
Candida albicans = experiment: Antimicrobial activity against Candida albicans assessed as inhibition zone at 200 ug/disk after 24 hrs by disc-diffusion method; assay type: functional; settings: read-out: IZ
A549 = experiment: Growth inhibition of human A549 cells at 10 uM after 48 hrs; assay type: functional; settings: A549, 48 h, read-out: GI
[1] = Growth inhibition of human HCT15 cells at 10 uM after 48 hrs; assay type: functional; settings: HCT-15, 48 h, read-out: GI
[2] = Growth inhibition of human RXF393 cells at 10 uM after 48 hrs; assay type: functional; settings: RXF 393, 48 h, read-out: GI
KM12 = experiment: Growth inhibition of human KM12 cells at 10 uM after 48 hrs; assay type: functional; settings: KM12, 48 h, read-out: GI
[3] = Growth inhibition of human UACC62 cells at 10 uM after 48 hrs; assay type: functional; settings: UACC-62, 48 h, read-out: GI
A498 = experiment: Growth inhibition of human A498 cells at 10 uM after 48 hrs; assay type: functional; settings: A498, 48 h, read-out: GI
Staphylococcus aureus = experiment: Antimicrobial activity against Staphylococcus aureus assessed as inhibition zone at 200 ug/disk after 24 hrs by disc-diffusion method; assay type: functional; settings: read-out: IZ
[4] = Growth inhibition of human OVCAR5 cells at 10 uM after 48 hrs; assay type: functional; settings: OVCAR-5, 48 h, read-out: GI
[5] = Growth inhibition of human HCT116 cells at 10 uM after 48 hrs; assay type: functional; settings: HCT-116, 48 h, read-out: GI
U-251 = experiment: Growth inhibition of human U251 cells at 10 uM after 48 hrs; assay type: functional; settings: U-251, 48 h, read-out: GI
SNB-75 = experiment: Growth inhibition of human SNB75 cells at 10 uM after 48 hrs; assay type: functional; settings: SNB-75, 48 h, read-out: GI
[6] = Growth inhibition of human UO31 cells at 10 uM after 48 hrs; assay type: functional; settings: UO-31, 48 h, read-out: GI
Pseudomonas aeruginosa = experiment: Antimicrobial activity against Pseudomonas aeruginosa assessed as inhibition zone at 200 ug/disk after 24 hrs by disc-diffusion method; assay type: functional; settings: read-out: IZ
Escherichia coli = experiment: Antimicrobial activity against Escherichia coli assessed as inhibition zone at 200 ug/disk after 24 hrs by disc-diffusion method; assay type: functional; settings: read-out: IZ
MDA-MB-231 = experiment: Growth inhibition of human MDA-MB-231 cells at 10 uM after 48 hrs; assay type: functional; settings: MDA-MB-231, 48 h, read-out: GI
CAKI-1 = experiment: Growth inhibition of human CAKI-1 cells at 10 uM after 48 hrs; assay type: functional; settings: CAKI-1, 48 h, read-out: GI
[7] = Growth inhibition of human BT549 cells at 10 uM after 48 hrs; assay type: functional; settings: BT-549, 48 h, read-out: GI
[8] = Growth inhibition of human LOXIMVI cells at 10 uM after 48 hrs; assay type: functional; settings: LOX IMVI, read-out: GI
SK-MEL-5 = experiment: Growth inhibition of human SK-MEL-5 cells at 10 uM after 48 hrs; assay type: functional; settings: SK-MEL-5, 48 h, read-out: GI
[9] = Growth inhibition of human NCI-ADR-RES cells at 10 uM after 48 hrs; assay type: functional; settings: read-out: GI
SNB-19 = experiment: Growth inhibition of human SNB19 cells at 10 uM after 48 hrs; assay type: functional; settings: SNB-19, 48 h, read-out: GI
Dihydrofolate reductase = target: T1, Dihydrofolate reductase (Bos taurus, UniProt P00376); experiment: Inhibition of bovine liver DHFR
T1 sequence (P00376 whole entry): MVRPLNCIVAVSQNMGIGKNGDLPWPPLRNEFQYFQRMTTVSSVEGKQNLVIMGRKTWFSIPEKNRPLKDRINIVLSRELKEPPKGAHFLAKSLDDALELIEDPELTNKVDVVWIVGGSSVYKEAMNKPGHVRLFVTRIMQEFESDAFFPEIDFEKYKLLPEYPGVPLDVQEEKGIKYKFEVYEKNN

[10] = Growth inhibition of human RPMI8226 cells at 10 uM after 48 hrs; assay type: functional; settings: RPMI-8226, 48 h, read-out: GI
[11] = Growth inhibition of human PC3 cells at 10 uM after 48 hrs; assay type: functional; settings: PC-3, 48 h, read-out: GI
K562 = experiment: Growth inhibition of human K562 cells at 10 uM after 48 hrs; assay type: functional; settings: K562, 48 h, read-out: GI
[12] = Growth inhibition of human SF295 cells at 10 uM after 48 hrs; assay type: functional; settings: SF-295, 48 h, read-out: GI
SF-268 = experiment: Growth inhibition of human SF268 cells at 10 uM after 48 hrs; assay type: functional; settings: SF-268, 48 h, read-out: GI
[13] = Growth inhibition of human OVCAR4 cells at 10 uM after 48 hrs; assay type: functional; settings: OVCAR-4, 48 h, read-out: GI
[14] = Growth inhibition of human OVCAR8 cells at 10 uM after 48 hrs; assay type: functional; settings: OVCAR-8, 48 h, read-out: GI
786-0 = experiment: Growth inhibition of human 786-0 cells at 10 uM after 48 hrs; assay type: functional; settings: 786-0, 48 h, read-out: GI
[15] = Growth inhibition of human HOP92 cells at 10 uM after 48 hrs; assay type: functional; settings: HOP-92, 48 h, read-out: GI
SR = experiment: Growth inhibition of human SR cells at 10 uM after 48 hrs; assay type: functional; settings: read-out: GI
HL-60(TB) = experiment: Growth inhibition of human HL-60(TB) cells at 10 uM after 48 hrs; assay type: functional; settings: HL-60, 48 h, read-out: GI
[16] = Growth inhibition of human SF539 cells at 10 uM after 48 hrs; assay type: functional; settings: SF-539, 48 h, read-out: GI

SMILES | zone of inhibition at 200 µg/disc (Bacillus subtilis) [mm] | zone of inhibition at 200 µg/disc (Candida albicans) [mm] | inhibition of growth at 10 µM [2] [%] | inhibition of growth at 10 µM [3] [%] | inhibition of growth at 10 µM (A498) [%] | zone of inhibition at 200 µg/disc (Staphylococcus aureus) [mm] | inhibition of growth at 10 µM [5] [%] | inhibition of growth at 10 µM [6] [%] | zone of inhibition at 200 µg/disc (Pseudomonas aeruginosa) [mm] | zone of inhibition at 200 µg/disc (Escherichia coli) [mm] | inhibition of growth at 10 µM (MDA-MB-231) [%] | inhibition of growth at 10 µM (CAKI-1) [%] | IC50 (Dihydrofolate reductase) [µM] | inhibition of growth at 10 µM [11] [%] | inhibition of growth at 10 µM [15] [%] | further results
COc1ccc(-n2c(Sc3sc(N)nc3C)nc3ccc(C)cc3c2=O)cc1 | 8 | 8 | 28 | 15.4 | 24.6 | 8 | 19.1 | 26.2 | 8 | 8 | 25 | 11.5 | 7 | 15.9 | 42.3 | inhibition of growth at 10 µM (A549): 15.6%; inhibition of growth at 10 µM [1]: 25.3%; inhibition of growth at 10 µM (KM12): 19.4%; inhibition of growth at 10 µM [4]: 17.9%; inhibition of growth at 10 µM (U-251): 15.7%; inhibition of growth at 10 µM (SNB-75): 11.9%; inhibition of growth at 10 µM [7]: 20.6%; inhibition of growth at 10 µM [8]: 11%; inhibition of growth at 10 µM (SK-MEL-5): 15.7%; inhibition of growth at 10 µM [9]: 11.3%; inhibition of growth at 10 µM (SNB-19): 15.5%; inhibition of growth at 10 µM [10]: 16.2%; inhibition of growth at 10 µM (K562): 13%; inhibition of growth at 10 µM [12]: 10.6%; inhibition of growth at 10 µM (SF-268): 10.6%; inhibition of growth at 10 µM [13]: 12.9%; inhibition of growth at 10 µM [14]: 13.4%; inhibition of growth at 10 µM (786-0): 12%
Cc1ccc(-n2c(Sc3nnc(N)s3)nc3ccc(C)cc3c2=O)cc1 | 8 | 8 | 10.5 | 14.8 | 14.2 | 8 | 11.6 | 23.2 | 8 | 8 | 21.9 | 10.4 | 8 | 11.8 | 21.1 | inhibition of growth at 10 µM (SR): 32.7%; inhibition of growth at 10 µM (HL-60(TB)): 28.2%; inhibition of growth at 10 µM [16]: 15.6%
